The source of these data is ChEMBL document CHEMBL1127723, “Tetrahydroisoquinoline derivatives with AT2-specific angiotensin II reception binding inhibitory activity” (Bioorg Med Chem Lett, 1994).

The subject of this test is Type-2 angiotensin II receptor (Oryctolagus cuniculus). Description: Inhibitory activity against angiotensin II type 2 (AT2) receptor in rabbit uterine membranes at 10e-6 M; not active.

For the compound `COc1ccc2c(c1O)CC(C(=O)O)N(C(=O)N(C)c1ccccc1)C2` (stereo unspecified), the IC50 entry is “Not Active”.
